Where two headings read alike, the source gives them in different places.
Assays:
Format in all cases: cell-based
[1] = biological target: T1, D4 dopaminergic receptors (Homo sapiens, UniProt P21917); assay: Cellular functional assay, D4 dopaminergic receptors; conditions: D4.4 (h), CHO cells; for D4 ag [%]: agonism, percent of control specific agonist response (300 nM dopamine for control); for D4 antag [%]: antagonism, stimulus dopamine (100 nM)
T1 sequence (P21917 1-419): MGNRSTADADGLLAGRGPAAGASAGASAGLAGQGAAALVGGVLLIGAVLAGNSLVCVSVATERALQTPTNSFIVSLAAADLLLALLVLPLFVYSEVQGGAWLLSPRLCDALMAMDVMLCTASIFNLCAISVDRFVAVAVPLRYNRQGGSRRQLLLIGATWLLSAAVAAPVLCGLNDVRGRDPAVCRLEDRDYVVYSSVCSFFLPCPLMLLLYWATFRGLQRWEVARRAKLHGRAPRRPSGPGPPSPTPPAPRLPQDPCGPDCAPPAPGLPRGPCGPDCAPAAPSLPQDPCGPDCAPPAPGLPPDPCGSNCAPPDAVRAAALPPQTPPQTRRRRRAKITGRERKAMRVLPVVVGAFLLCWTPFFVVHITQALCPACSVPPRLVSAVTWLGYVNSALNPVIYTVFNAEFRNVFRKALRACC
Protocol: (§1) The results are expressed as a percent of control specific agonist response ((measured specific response/control specific agonist response)×100) obtained in the presence of the test compounds.
(§2) The EC50 values (concentration producing a half-maximal specific response) and IC50 values (concentration causing a half-maximal inhibition of the control specific agonist response) were determined by non-linear regression analysis of the concentration-response curves generated with mean replicate values using Hill equation curve fitting (Y=D+[(A−D)/(1+(C/C50)nH)], where Y=specific response, D=minimum specific response, A=maximum specific response, C=compound concentration, and C50=EC50 or IC50, and nH=slope factor). This analysis was performed using a software developed at Cerep (Hill software) and validated by comparison with data generated by the commercial software SigmaPlot® 4.0 for Windows® (© 1997 by SPSS Inc.).
(§3) For the antagonists, the apparent dissociation constants (Kb) were calculated using the modified Cheng Prusoff equation (Kb=IC50/(1+(A/EC50A)), where A=concentration of reference agonist in the assay, and EC50A=EC50 value of the reference agonist).

[2] = biological target: D2 dopaminergic receptors (Homo sapiens, UniProt P14416); assay: Cellular functional assay, D2 dopaminergic receptors; conditions: D2S (h), HEK-293 cells; for D2 ag [%]: agonism, percent of control specific agonist response (3 μM dopamine for control); for D2 antag [%]: antagonism, stimulus dopamine (30 nM)
Protocol: as §1, §2, §3

[3] = biological target: 5-HT6 serotoninergic receptors (Homo sapiens, UniProt P50406); assay: Cellular functional assay, 5-HT6 serotoninergic receptors; conditions: agonist mode; percent of control specific agonist response
Protocol: as §1, §2, §3

[4] = biological target: 5-HT2A serotoninergic receptors (Homo sapiens, UniProt P28223); assay: Cellular functional assay, 5-HT2A serotoninergic receptors
Protocol: as §1
The EC50 values (concentration producing a half-maximal specific response) and IC50 values (concentration causing a half-maximal inhibition of the control specific agonist response) were determined by non-linear regression analysis of the concentration-response curves generated with mean replicate values using Hill equation curve fitting (Y=D+[(A−D)/(1+(C/C50)nH)], where Y=specific response, D=minimum specific response, A=maximum specific response, C=compound concentration, and C50=EC50 or IC50, and nH=slope factor).
as §3

[5] = biological target: D3 dopaminergic receptors (Homo sapiens, UniProt P35462); assay: Cellular functional assay, D3 dopaminergic receptors; conditions: D3 (h), CHO cells; for D3 ag [%]: agonism, percent of control specific agonist response (0.3 μM dopamine for control); for D3 antag [%]: antagonism, stimulus dopamine (10 nM)
Protocol: as §1, §2, §3

[6] = biological target: T2, 5-HT1A serotoninergic receptors (Homo sapiens, UniProt P08908); assay: Cellular functional assay, 5-HT1A serotoninergic receptors; conditions: for 5-HT1A ag [%]: agonist mode, percent of control specific agonist response; for 5-HT1A antag [%]: antagonist mode
T2 sequence (P08908 1-422): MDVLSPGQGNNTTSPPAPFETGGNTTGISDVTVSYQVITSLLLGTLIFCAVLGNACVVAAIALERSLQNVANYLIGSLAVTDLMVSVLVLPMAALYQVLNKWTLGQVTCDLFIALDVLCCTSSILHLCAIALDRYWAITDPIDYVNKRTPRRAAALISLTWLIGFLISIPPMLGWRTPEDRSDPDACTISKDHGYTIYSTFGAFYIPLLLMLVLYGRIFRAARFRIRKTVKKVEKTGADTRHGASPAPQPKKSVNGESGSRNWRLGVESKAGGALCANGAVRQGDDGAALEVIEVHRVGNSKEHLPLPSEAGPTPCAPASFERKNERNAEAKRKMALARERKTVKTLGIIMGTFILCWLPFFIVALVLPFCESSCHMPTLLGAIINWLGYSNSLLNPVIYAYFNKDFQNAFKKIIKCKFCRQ
Protocol: as §1, §2, §3

[7] = agonist mode, percent of control specific agonist response

5-HT6 serotoninergic receptors, sequence (P50406 whole entry): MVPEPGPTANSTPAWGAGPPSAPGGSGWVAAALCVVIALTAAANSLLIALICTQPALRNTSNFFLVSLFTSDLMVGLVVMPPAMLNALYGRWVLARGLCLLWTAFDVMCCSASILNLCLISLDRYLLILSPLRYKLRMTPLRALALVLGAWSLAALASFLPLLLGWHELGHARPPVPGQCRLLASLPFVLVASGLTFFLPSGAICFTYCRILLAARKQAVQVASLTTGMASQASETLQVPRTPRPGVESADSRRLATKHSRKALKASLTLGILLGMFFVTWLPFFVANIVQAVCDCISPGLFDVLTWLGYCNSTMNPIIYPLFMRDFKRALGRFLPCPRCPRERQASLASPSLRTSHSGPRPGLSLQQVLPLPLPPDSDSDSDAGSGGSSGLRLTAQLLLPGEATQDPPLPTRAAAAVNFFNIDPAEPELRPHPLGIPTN
5-HT2A serotoninergic receptors, sequence (P28223 whole entry): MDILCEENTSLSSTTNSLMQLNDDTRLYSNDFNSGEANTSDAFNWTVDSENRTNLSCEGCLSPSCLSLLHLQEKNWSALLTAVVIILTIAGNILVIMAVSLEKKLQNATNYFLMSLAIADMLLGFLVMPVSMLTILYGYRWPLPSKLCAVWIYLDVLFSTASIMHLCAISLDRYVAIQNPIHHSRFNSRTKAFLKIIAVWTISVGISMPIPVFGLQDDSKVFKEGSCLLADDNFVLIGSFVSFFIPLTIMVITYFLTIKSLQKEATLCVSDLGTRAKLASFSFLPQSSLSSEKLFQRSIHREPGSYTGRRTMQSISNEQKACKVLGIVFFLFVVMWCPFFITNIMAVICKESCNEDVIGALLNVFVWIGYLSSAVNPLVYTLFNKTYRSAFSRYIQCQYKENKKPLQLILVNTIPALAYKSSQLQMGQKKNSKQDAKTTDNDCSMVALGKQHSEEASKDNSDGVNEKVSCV
D3 dopaminergic receptors, sequence (P35462 whole entry): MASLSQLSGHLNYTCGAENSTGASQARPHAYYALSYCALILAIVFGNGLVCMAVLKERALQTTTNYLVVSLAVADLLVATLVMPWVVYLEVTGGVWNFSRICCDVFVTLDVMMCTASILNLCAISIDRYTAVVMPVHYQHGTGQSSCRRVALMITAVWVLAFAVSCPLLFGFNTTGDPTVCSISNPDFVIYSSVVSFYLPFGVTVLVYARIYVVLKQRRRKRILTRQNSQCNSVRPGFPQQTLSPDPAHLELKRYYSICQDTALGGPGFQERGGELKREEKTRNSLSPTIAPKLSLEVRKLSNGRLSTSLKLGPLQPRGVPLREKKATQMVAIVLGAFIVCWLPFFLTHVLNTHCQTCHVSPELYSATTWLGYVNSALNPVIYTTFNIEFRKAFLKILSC
D2 dopaminergic receptors, sequence (P14416 whole entry): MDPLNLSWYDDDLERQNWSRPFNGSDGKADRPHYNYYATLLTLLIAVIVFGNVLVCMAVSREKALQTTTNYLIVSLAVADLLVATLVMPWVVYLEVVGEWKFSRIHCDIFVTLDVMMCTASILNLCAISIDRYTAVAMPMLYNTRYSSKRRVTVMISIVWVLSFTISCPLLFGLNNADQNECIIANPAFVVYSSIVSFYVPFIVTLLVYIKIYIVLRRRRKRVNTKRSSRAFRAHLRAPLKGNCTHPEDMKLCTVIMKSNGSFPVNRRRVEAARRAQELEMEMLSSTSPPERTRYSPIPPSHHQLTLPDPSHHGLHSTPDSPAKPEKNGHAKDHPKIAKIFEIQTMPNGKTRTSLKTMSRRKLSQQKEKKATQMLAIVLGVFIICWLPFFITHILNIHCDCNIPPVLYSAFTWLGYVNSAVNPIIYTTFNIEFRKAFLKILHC

Compound | D4 ag [%] [1] [%] | D4 antag [%] [1] [%] | D2 ag [%] [2] [%] | D2 antag [%] [2] [%] | 5-HT6 ag [%] [3] [%] | 5-HT2A ag [%] [4] [%] | 5-HT2A ag [%] [4, 7] [%] | D3 ag [%] [5] [%] | D3 antag [%] [5] [%] | 5-HT1A ag [%] [6] [%] | 5-HT1A antag [%] [6] [%] | 5-HT2A antag [%] [4] [%] | 5-HT2A antag [%] ([4]; antagonist mode)
O=S(=O)(NC1CCN(CCCc2noc3cc(F)ccc23)C1)c1cccc2ccccc12 (stereo not drawn) [Compound 20, N-[1-[3-(6-Fluoro-1,2-benzoxazol-3-yl)propyl]pyrrolidin-3-yl]naphthalene-1-sulphonamide] | 17 | 79 | 4 | 32 | 1 | 0 | – | – | – | – | – | – | –
O=S(=O)(NC1CCN(CCCc2noc3cc(F)ccc23)C1)c1csc2ccccc12 (stereo not drawn) [Compound 26, N-[1-[3-(6-Fluoro-1,2-benzoxazol-3-yl)propyl]pyrrolidin-3-yl]-benzothiophene-3-sulphonamide] | −4 | 88 | 3 | 68 | 0 | – | −1 | – | – | – | – | – | –
O=S(=O)(NC1CCN(CCOc2nsc3ccccc23)C1)c1ccc2ccccc2c1 (stereo not drawn) [Compound 39, N-[1-[2-(1,2-Benzothiazol-3-yloxy)ethyl]pyrrolidin-3-yl]naphthalene-2-sulphonamide] | – | – | – | – | −1 | 3 | – | 66 | 16 | 34 | – | – | –
O=S(=O)(NC1CN(CCOc2cccc3[nH]ccc23)C1)c1cccc2ccccc12 [Compound 49, N-[1-[2-(1H-Indol-4-yloxy)ethyl]azetidin-3-yl]naphthalene-1-sulphonamide] | – | – | 57 | 97 | – | – | – | 75 | 12 | 39 | – | – | –
O=S(=O)(NC1CN(CCOc2cccc3[nH]ccc23)C1)c1ccc2ccccc2c1 [Compound 50, N-[1-[2-(1H-Indol-4-yloxy)ethyl]azetidin-3-yl]naphthalene-2-sulphonamide] | 62 | 32 | 56 | 92 | – | −2 | – | 85 | 0 | 48 | – | – | –
O=S(=O)(NC1CCN(CCOc2cccc3[nH]ccc23)CC1)c1ccccc1 [Compound 55, N-[1-[2-(1H-Indol-4-yloxy)ethyl]-4-piperidine]benzenesulphonamide] | – | – | – | – | – | – | −1 | 82 | −33 | 72 | 18 | – | –
Cc1cccc(S(=O)(=O)NC2CCN(CCCc3c[nH]c4ccc(F)cc34)C2)c1 (stereo not drawn) [Compound 78, N-[1-[3-(5-Fluoro-1H-indol-3-yl)propyl]pyrrolidin-3-yl]-3-methyl-benzenesulphonamide] | – | – | – | – | 54 | 51 | – | 89 | −10 | 54 | – | −1 | –
O=S(=O)(NC1CN(CCOc2cccc3c2OCCO3)C1)c1ccc(Cl)cc1 [Compound 92, 4-Chloro-N-[1-[2-(2,3-dihydro-1,4-benzodioxan-8-yloxy)ethyl]azetidin-3-yl]benzene-sulphonamide] | – | – | – | – | – | – | – | – | – | 47 | 89 | – | –
Cc1cccc(S(=O)(=O)NC2CN(CCOc3cccc4c3OCCO4)C2)c1 [Compound 93, N-[1-[2-(2,3-Dihydro-1,4-benzodioxan-8-yloxy)ethyl]azetidin-3-yl]-3-methyl-benzenesulphonamide] | – | – | – | – | – | – | – | – | – | 37 | 76 | – | –
Cc1cc(S(=O)(=O)NC2CCN(CCCc3noc4cc(F)ccc34)C2)c(C)s1 (stereo not drawn) [Compound 221, N-[1-[3-(6-Fluoro-1,2-benzoxazol-3-yl)propyl]pyrrolidin-3-yl]-2,5-dimethyl-thiophene-3-sulphonamide] | 10 | 73 | 14 | 97 | −4 | −2 | – | −3 | 100 | – | – | – | –
Cc1cc(S(=O)(=O)N[C@@H]2CCN(CCCc3noc4cc(F)ccc34)C2)c(C)s1 [Compound 222, N-[(3R)-1-[3-(6-Fluoro-1,2-benzoxazol-3-yl)propyl]pyrrolidin-3-yl]-2,5-dimethyl-thiophene-3-sulphonamide] | 6 | 58 | 6 | 65 | −1 | −1 | – | – | – | – | – | – | –
Cc1cc(S(=O)(=O)N[C@H]2CCN(CCCc3noc4cc(F)ccc34)C2)c(C)s1 [Compound 223, N-[(3S)-1-[3-(6-Fluoro-1,2-benzoxazol-3-yl)propyl]pyrrolidin-3-yl]-2,5-dimethyl-thiophene-3-sulphonamide] | 4 | 22 | – | – | −1 | 0 | – | – | – | – | – | – | –
O=S(=O)(N[C@@H]1CCN(CCCc2noc3cc(F)ccc23)C1)c1csc2ccccc12 [Compound 224, N-[(3R)-1-[3-(6-Fluoro-1,2-benzoxazol-3-yl)propyl]pyrrolidin-3-yl]benzothiophene-3-sulphonamide] | −7 | 84 | 5 | 57 | −1 | – | −2 | – | – | – | – | – | –
O=S(=O)(N[C@H]1CCN(CCCc2noc3cc(F)ccc23)C1)c1csc2ccccc12 [Compound 225, N-[(3S)-1-[3-(6-Fluoro-1,2-benzoxazol-3-yl)propyl]pyrrolidin-3-yl]benzothiophene-3-sulphonamide] | −3 | 35 | 7 | 52 | 1 | – | −1 | – | – | – | – | – | –
N-[[1-[2-[(2,2-Dimethyl-3H-benzofuran-7-yl)oxy]ethyl]azetidin-3-yl]methyl]-3-hydroxy-benzenesulphonamide [Compound 111] | – | – | 36 | 89 | – | – | 5 | – | – | 48 | 89 | – | 58
